The source made the active and inactive calls. The rule behind the calls is not given here.
Columns and labels:
[1] = test system: Amphibalanus amphitrite; assay: Antifouling activity against cypris stage of Amphibalanus amphitrite larvae assessed as inhibition of larval settlement at < 1 ug/ml after 48 to 120 hrs by microscopic analysis; format: functional, organism-based
[2] = test system: MCF7; assay: Growth inhibition of human MCF7 cells after 72 hrs by MTT assay; format: functional; details: MCF7, 72 h
[3] = test system: NCI-H460; assay: Growth inhibition of human H460 cells after 72 hrs by MTT assay; format: functional; details: NCI-H460, 72 h
[4] = test system: N2a; assay: Growth inhibition of mouse Neuro2a cells after 72 hrs by MTT assay; format: functional

GI50 [2] [µM] | GI50 [3] [µM] | SMILES | inhibition [1] | GI50 [4] [µM]
> 160 | – | COC(=O)c1csc([C@@H](OC(=O)[C@@H](C)[C@H](CCCC(C)(Cl)Cl)OC(=O)c2csc([C@H](O)CO)n2)C(C)(C)O)n1 | – | –
9 | – | CCCC(=O)N[C@@H](CC(C)C)[C@H](O)CC(=O)OC[C@@H](O)c1nc(C(=O)O[C@@H](CCCC(C)(Cl)Cl)[C@H](C)C(=O)O[C@H](c2nc(C(=O)OC)cs2)C(C)(C)O)cs1 | – | –

The remaining lines, values behind:

SMILES | GI50 [2] [µM] | GI50 [3] [µM] | inhibition [1] | GI50 [4] [µM]
CCCCCCCCCCCCC/C=C(\C)C(=O)N[C@@H](CO)COC | – | – | Active | –
C[C@@H]1C(=O)O[C@@H](C(C)(C)O)c2nc(cs2)C(=O)OC[C@@H](O)c2nc(cs2)C(=O)O[C@H]1CCCC(C)(Cl)Cl | 120 | 2.2 | – | 4.8
CCCCCCCCCCCCC/C=C(\C)C(=O)N[C@H](COC)COC(C)=O | – | – | Active | –

Reference: ChEMBL document CHEMBL4130480, “Serinolamides and Lyngbyabellins from an Okeania sp. Cyanobacterium Collected from the Red Sea” (J Nat Prod, 2017)
